For assay [1], the target named is T1, 5-HT2A (Homo sapiens, UniProt P28223). Description: IPOne, 5-HT2A. It is filed as cell-based. Further details: expressed in transfected cells. Particulars: for Emax: read-out: Emax (% α-Me-5-HT). The method, then: (§1) In vitro pharmacology studies were performed to evaluate the effects of compound 2-1 on functional activity of several 5-HT receptors using recombinant target overexpression cell culture systems. The effect of compound 2-1 on G protein-dependent signaling was investigated at 5-HT2A, 5-HT2B, and 5-HT2C receptors with calcium mobilization and IPOne assays; and at 5-HT1A, 5-HT1B, 5-HT1F, 5-HT5A, and 5-HT7D receptors with a cAMP assay. G protein-independent signaling was investigated at the 5-HT2A receptor with a β-Arrestin assay.
T1 sequence (P28223 whole entry): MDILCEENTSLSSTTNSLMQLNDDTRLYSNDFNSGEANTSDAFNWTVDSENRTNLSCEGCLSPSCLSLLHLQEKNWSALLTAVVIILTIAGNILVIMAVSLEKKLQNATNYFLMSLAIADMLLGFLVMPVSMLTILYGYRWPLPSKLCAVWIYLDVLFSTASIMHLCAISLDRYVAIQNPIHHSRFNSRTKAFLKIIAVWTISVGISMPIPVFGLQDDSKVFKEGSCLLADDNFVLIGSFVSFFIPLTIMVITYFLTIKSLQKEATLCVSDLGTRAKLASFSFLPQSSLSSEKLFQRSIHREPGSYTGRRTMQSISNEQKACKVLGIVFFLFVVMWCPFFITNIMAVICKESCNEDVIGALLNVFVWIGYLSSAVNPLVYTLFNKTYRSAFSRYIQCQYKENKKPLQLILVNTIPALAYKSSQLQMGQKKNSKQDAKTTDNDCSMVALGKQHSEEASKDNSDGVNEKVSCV
(§2) In vitro pharmacology studies were performed to evaluate the effects of compound 2-2 on functional activity at several 5-HT receptors using recombinant target overexpression cell culture systems. The effect of compound 2-2 on G protein-dependent signaling was investigated at 5-HT2A, 5-HT2B, and 5-HT2C receptors with calcium mobilization and IPOne assays; and at 5-HT1A, 5-HT1B, 5-HT1F, 5-HT5A, and 5-HT7D receptors with a cAMP assay. G protein-independent signaling was investigated at the 5-HT2A receptor with a β-arrestin assay. […] In Table 4, 5-HT receptor selectivity was calculated using ΔΔlog(Emax/EC50). Assay reference α-Me-5-HT or 5-HT was used for normalization at each receptor (5-HT2A/5-HT2B selectivity=1; 5-HT2A/5-HT2C selectivity=1). ND in Table 4 indicates, not determined, plateau was not reached within the concentration range tested to determine Emax.

The target in a further assay is T2, 5-HT2C (Homo sapiens, UniProt P28335).
T2 construct: expressed in transfected cells
T2 sequence (P28335 33-458): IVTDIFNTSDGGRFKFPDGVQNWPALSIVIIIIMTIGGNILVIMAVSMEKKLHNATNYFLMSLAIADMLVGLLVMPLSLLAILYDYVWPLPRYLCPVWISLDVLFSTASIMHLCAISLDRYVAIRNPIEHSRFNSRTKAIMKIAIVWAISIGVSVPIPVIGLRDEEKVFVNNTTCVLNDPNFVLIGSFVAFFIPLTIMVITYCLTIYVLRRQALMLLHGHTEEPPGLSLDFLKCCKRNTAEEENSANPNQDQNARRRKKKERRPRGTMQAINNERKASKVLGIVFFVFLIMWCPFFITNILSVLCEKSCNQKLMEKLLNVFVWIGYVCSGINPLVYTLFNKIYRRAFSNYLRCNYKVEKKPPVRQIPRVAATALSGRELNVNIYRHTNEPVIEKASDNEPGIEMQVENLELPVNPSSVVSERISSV
The experiment in a line: Ca++ (calcium mobilization), 5-HT2C. It is filed as cell-based. Particulars: for Emax: Ca++, human 5-HT2C, read-out: Emax (%5-HT). The protocol: as §1, §2
On the technique in general: Calcium assays in cells follow changes in intracellular calcium, usually with a dye or a luminescent sensor.

Assay [2] concerns the target T1, 5-HT2A. The experiment in a line: β-Arrestin, 5-HT2A. It is filed as cell-based. Further details: expressed in transfected cells. Particulars: for Emax: read-out: Emax (%5-HT). The method, then: as §1, §2
The target of the next assay is 5-HT2A (mouse) (Mus musculus, UniProt P35363). The experiment in a line: β-Arrestin, mouse 5-HT2A. The format is cell-based. Particulars: for Emax: β-Arrestin, mouse 5-HT2A, read-out: Emax (%5-HT). An excerpt:
Overall, in vitro activity at rodent 5-HT2A and 5-HT2B receptors is consistent with the human receptor results, with compound 2-1 acting as a potent and selective 5-HT2A agonist.
Overall, in vitro activity at rodent 5-HT2A and […] receptors is consistent with the human receptor results, with compound 2-2 acting as a potent and selective 5-HT2A agonist. In Table 5, ND indicates not determined.

The subject of assay [3] is 5-HT2A. Description: Ca++ (calcium mobilization), 5-HT2A. It is filed as cell-based, human. Particulars: Ca++, human; calculated using ΔΔlog(Emax/EC50), reference = 1. The protocol:
as §1, §2

pEC50: −log10 of the molar value.

A word on the pEC50: it is the negative decadic logarithm of the EC50, by convention in mol/L. What is called Emax is the size of the effect at its maximum, as opposed to the concentration needed.

5-HT2A (mouse), sequence (P35363 whole entry): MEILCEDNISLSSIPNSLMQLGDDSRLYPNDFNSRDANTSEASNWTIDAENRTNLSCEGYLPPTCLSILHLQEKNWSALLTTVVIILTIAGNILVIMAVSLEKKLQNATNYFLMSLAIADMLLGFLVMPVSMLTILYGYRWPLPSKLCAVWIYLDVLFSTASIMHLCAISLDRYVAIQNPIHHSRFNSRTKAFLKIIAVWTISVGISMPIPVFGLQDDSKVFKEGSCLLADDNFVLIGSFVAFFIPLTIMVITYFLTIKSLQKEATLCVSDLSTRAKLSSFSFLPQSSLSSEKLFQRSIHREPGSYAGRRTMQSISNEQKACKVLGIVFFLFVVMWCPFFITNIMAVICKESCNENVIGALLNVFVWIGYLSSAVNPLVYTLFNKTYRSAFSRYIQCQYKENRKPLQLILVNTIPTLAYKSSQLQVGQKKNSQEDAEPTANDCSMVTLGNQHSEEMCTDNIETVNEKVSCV

For the compound `COc1ccc(OC)c(CCNCc2cc(C)cc(Cl)c2)c1` [Compound 2-1, N-(3-chloro-5-methylbenzyl)-2-(2,5-dimethoxyphenyl)ethan-1-amine], the pEC50 was 8.55 on 5-HT2A [1], 7.38 at 5-HT2C, 7.76 at 5-HT2A [2] and 8.36 on 5-HT2A (mouse). Also, the Emax at 5-HT2A [1] amounted to 99.4%; on 5-HT2C it was 82%; on 5-HT2A [2], 89.3%; on 5-HT2A (mouse), 65%. The “5-HT2A/5-HT2C Selectivity” value in the assay on 5-HT2A [3] is on record as 77.
Consider `COc1ccc(OC)c(CCNCc2cc(C)cc(F)c2)c1` [Compound 2-2, 2-(2,5-dimethoxyphenyl)-N-(3-fluoro-5-methylbenzyl)ethan-1-amine], for which the pEC50 is 8.04 on 5-HT2A [1], 7.13 on 5-HT2C, 7.59 at 5-HT2A [2] and 7.66 at 5-HT2A (mouse). Moreover, the Emax on 5-HT2A [1] turned out to be 97.9%; on 5-HT2C, 88.2%; at 5-HT2A [2], 82.1%; at 5-HT2A (mouse), 60.2%. Further, the “5-HT2A/5-HT2C Selectivity” value with 5-HT2A [3] is on record as 56.

(Values after patent US12343319B2, “Compositions and methods for treatment of diseases and disorders” (Atai Therapeutics Inc., priority 2023, dated 2025).)
